Data on 3 compounds can be found in patent publication US11466066B2, “Variants of human BMP7 protein” (ELI LILLY AND COMPANY, priority 2017, dated 2022).

For assay [1], the system named is DLD1 C5 tumor xenografts. Nature of the assay: DLD1 C5 mouse xenograft tumor model. It is filed as in vivo. Conditions: saline-treated, then irinotecan treated animals (20 mg/kg, M and Th). The procedure: Female athymic nude mice age 6- to 7-weeks old are available commercially, including from Harlan Laboratories (Indianapolis, Ind.). The mice are allowed to acclimate for one week and fed ad libitum on a normal low fat (4.5%) diet, which may be continued for the duration of the study. Tumor cells are available for purchase from ATCC and may be cultured in cell culture media such as RPMI 1640 (Life Technologies) with L-glutamine, 25 mM HEPES supplemented with 10% FBS and 1 mM Na Pyruvate. Cells may be detached, washed with serum free medium and then resuspended at a final concentration of 50×10^6 cells/mL in serum free RPMI 1640. Tumor cells, approximately 5×106 may be injected subcutaneously in the rear flank of subject mice in a 1:1 mixture of serum free growth medium and Matrigel (Becton Dickinson, Bedford, Mass.). Tumor and body weight measurements may be performed twice weekly. Prior to treatment, mice can be randomized based on tumor size using a randomization algorithm. Treatments may be started when the average tumor volume reaches 100 mm3. […]
All test or control proteins are prepared in phosphate Buffered Saline (PBS) prior to dose. Tumor size may be determined by caliper measurements. […] Log volume data can be analyzed with two-way repeated measures ANOVA by time and treatment using SAS PROC MIXED software (SAS Institutes Inc, Cary, N.C.). […]

The subject of assay [2] is 3T3-L1 fibroblasts. The experiment in a line: Alkaline phosphatase stimulation in 3T3-L1 cells. It is filed as cell-based. Conditions: 1 μg/ml pro-BMP7, 1 μM ATRA, 48 hours. How it is done: (§1) 3T3-L1 fibroblasts and MFc7 mouse renal myofibroblasts may be grown essentially as described in Example 2 above. After 48 hours the cells may be washed with PBS prior to the addition of either DMEM/2% dialyzed FBS or OPTI-MEM/2% dialyzed FBS medium containing control vehicle, 1 μg/ml human proBMP7 protein, 1 μM ATRA or a combination of both human BMP7 protein (1 μg/ml) and ATRA (1 μM) may be added for 48 hours. After treatment the cells may be rinsed with PBS and stored at −80° C. for approximately 20 minutes. The cells may be thawed at 37° C. for 30 minutes and 100 μl of PNPP may be added to every well. The plate may be incubated at 37° C. for 1 hour. The absorbance at 405 nm may be read on a plate reader.

Assay [3] has as its system MFc7 mouse renal myofibroblasts. The experiment in a line: Alkaline phosphatase stimulation in MFc7 cells. The following applies: 1 μg/ml pro-BMP7, 1 μM ATRA, 48 hours. It counts as cell-based. How it is done:
as §1

Assay [4] relates to SOX2. The experiment in a line: SOX2 expression in GBM cells. It is filed as cell-based, human. Conditions: ATRA 1 μg/ml, F9 100 ng/mL. How it is done:
(§2) Glioblastoma multiforme stem cells (GBMs) may be obtained from patients with primitive brain tumors undergoing complete or partial surgical resection. These cells may be maintained as neurospheres in defined media with 3.34 g/L of DMEM and 2.66 g/L F12 reconstituted in sterile distilled water and containing 1% glucose, 0.12% sodium bicarbonate, 5 mM hepes, 2 mM L-glutamine, 4 mg/L heparin, 10 ng/mL bFGF, 20 ng/mL EGF, 0.4% BSA, 100 μg/mL apotransferrin, 25 μg/mL insulin, 60 uM putrescine, 30 nM sodium selenite, and 20 nM progesterone. Cells may be cultured at 37° C. in 5% CO2. Cells may be plated by enzymatically dispersing spheres into single cells with a 2-5 minute incubation at 37° C. with TrypLE™ Express cell dissociation enzyme. The enzyme may be quenched with Dulbecco's Phosphate Buffered Saline (DPBS) containing Ca+ and Mg+. Then the cells may centrifuged to remove TrypLE and DPBS and resuspended as single cells in defined media and counted by a Coulter Z2 Cell and Particle counter.
(§3) Single GBM cells may be plated in defined media at 2×10^6 cells/15 mL/T75 flask for high content imaging or 5×10^5 cells/2 mL/well in 6-well plates for light microscopy. Cells may be treated with 0.01% DMSO, 1 μg/mL ATRA, 100 ng/mL of a human BMP7 protein variant of the present invention (e.g., human BMP7 protein variant F9 (SEQ ID NO: 8)), or a combination of 1 μg/mL ATRA and 100 ng/mL human BMP7 protein variant of the present invention. For light microscopy imaging of the effect of control BMPs (BMP2 and BMP4), cells may be plated as above in 6-well dishes and treated with 0.01% DMSO, 1 μg/mL ATRA, 100 ng/mL BMP2, 50 ng/mL BMP4, or a combination of BMPs at the same concentrations plus 1 μg/mL ATRA. Example images may be captured at 3, 7, and 30 days post-treatment on a Leica DMIRM inverted microscope using a 20× objective, for example. For growth longer than 7 days, media and treatment may be changed approximately every 10 days beginning at day 10. […]

In assay [5] the test system is Ki67. Nature of the assay: Ki67 expression in GBM cells. Conditions: ATRA 1 μg/ml, F9 100 ng/mL. It is filed as cell-based, human. How it is done: as §2, §3
Assay [6] has as its system ADSC/ECFC co-culture stimulated with VEGF. Nature of the assay: VEGF-driven cord formation. It counts as cell-based. The following applies: 100 nM; 10 ng/ml VEGF; 96 hours. An excerpt:
(§4) An in vitro endothelial cord formation assay, a surrogate of angiogenesis, may be used to investigate the role of human BMP7 proteins on various growth factor established cords including, but not limited to, VEGF, basic FGF, and EGF established cords. Endothelial cord forming cells (ECFCs; passage 4-10 suitable for cord formation) may be cultured in EGM-2 MV (Lona) media containing a final concentration of 10% FBS and passaged onto type 1 collagen (fibrillar) coated flasks prior to seeding into the cord formation assay in vitro. […]
An ADSC/ECFC co-culture was unstimulated (basal) or stimulated with 10 ng/ml VEGF and treated simultaneously with PBS or 100 ng/ml human pro-BMP7 variant F9 or 100 nM sunitinib for 96 hours prior to immunohistochemistry for CD31 (green), α-smooth muscle actin (red), and Hoechst 33342 to stain all nuclei (blue). Resulting CD31-positive endothelial cords were visualized and quantitated using high content imaging. […]

Assay [7] deals with ADSC/ECFC co-culture stimulated with bFGF. Nature of the assay: FGF-driven cord formation. It is filed as cell-based. Conditions: 100 nM; 10 ng/ml bFGF; 96 hours.
Text: as §4
An ADSC/ECFC co-culture was unstimulated (basal) or stimulated with 10 ng/ml bFGF and treated simultaneously with PBS or 100 ng/ml human pro-BMP7 variant F9 or 100 nM sunitinib for 96 hours prior to immunohistochemistry for CD31 (green), α-smooth muscle actin (red), and Hoechst 33342 to stain all nuclei (blue). Resulting CD31-positive endothelial cords were visualized and quantitated using high content imaging. […]

Assay [8] relates to ADSC/ECFC co-culture stimulated with EGF. The experiment in a line: EGF-driven cord formation. It is filed as cell-based. Conditions: 100 nM; 10 ng/ml EGF; 96 hours.
Text: as §4
An ADSC/ECFC co-culture was unstimulated (basal) or stimulated with 10 ng/ml EGF and treated simultaneously with PBS or 100 ng/ml human pro-BMP7 variant F9 or 100 nM sunitinib for 96 hours prior to immunohistochemistry for CD31 (green), α-smooth muscle actin (red), and Hoechst 33342 to stain all nuclei (blue). Resulting CD31-positive endothelial cords were visualized and quantitated using high content imaging. […]

With `CCc1c2c(nc3ccc(OC(=O)N4CCC(N5CCCCC5)CC4)cc13)-c1cc3c(c(=O)n1C2)COC(=O)[C@]3(O)CC` [irinotecan, reference compound], in assay [1], the tumor response result is given as “tumor growth”.

Consider `CC1=C(/C=C/C(C)=C/C=C/C(C)=C/C(=O)O)C(C)(C)CCC1` [ATRA, All-trans retinoic acid, reference compound], for which the “fold change in alkaline phosphatase stimulation relative to control vehicle treated cells” value is reported as 2.9 fold in assay [2] and 8 fold in assay [3]. For the same compound, the “SOX2 percent responders normalized to vehicle control” value in assay [4] (GBM clone CL-1, Day 3) is given as 97%; in assay [4] (GBM clone CL-61, Day 0), 89%; in assay [4] (GBM clone Cl-1, Day 25), 97%. Further, the “Ki67 percent responders normalized to vehicle control” value came to 99% in assay [5] (GBM clone CL-1, Day 3); 83% in assay [5] (GBM clone CL-61, Day 0); 101% in assay [5] (GBM clone Cl-1, Day 25).

Consider `CCN(CC)CCNC(=O)c1c(C)[nH]c(/C=C2\C(=O)Nc3ccc(F)cc32)c1C` [sunitinib, reference compound], for which the “Connected Tube Area - VEGF (% PBS)” value in assay [6] worked out at 26.14 ± 9.88%. Also, in assay [7], the “Connected Tube Area - FGF (% PBS)” value is 43.01 ± 18.28%. The “Connected Tube Area - EGF (% PBS)” value in assay [8] turned out to be 9.89 ± 8.059%.
